Tests used:
[1] = tested on: conscious mice; test: intravenous toxicity in conscious mice; assay type: in vivo; settings: four conscious mice, one hundred times the dose giving approximate 50% inhibition of gastric secretion in the anaesthetised rat
Experimental: (§1) No overt toxicity or side effects were noted during the rat or dog tests. The compound 4-[3-(4-[2-(2,2,2-trifluoroethyl)guanidino]pyrimid-2-ylthio)propyl]-imidazole was administered intravenously to groups of two anaesthetised rats and four conscious mice at doses which were respectively ten times and one hundred times the dose, in mg./kg., which produced an approximate 50% inhibition of gastric secretion in the anaesthetised rat.

[2] = tested on: anaesthetised rats; test: intravenous toxicity in anaesthetised rats; assay type: in vivo; settings: two anaesthetised rats, ten times the dose giving approximate 50% inhibition of gastric secretion in the anaesthetised rat
Experimental: as §1

With `NC(=NCC(F)(F)F)Nc1ccnc(SCCCc2c[nH]cn2)n1.O=C(O)/C=C\C(=O)O` [Example 2, 4-[3-(4-[2-(2,2,2-trifluoroethyl)guanidino]pyrimid-2-ylthio)propyl]imidazole dihydrogen maleate] the toxic symptoms [1] was “No toxic symptoms were noted” and the toxic symptoms [2] was “No toxic symptoms were noted”.

From US4463005A, “Bicyclic guanidines” (Imperial Chemical Industries PLC, priority 1981, dated 1984)
